Source: patent US10688093B2, “Methods, compositions, and uses of novel Fyn kinase inhibitors” (priority 2015, dated 2020)

The compounds below were run against full-length recombinant human FYN A (Homo sapiens (Human), UniProt P06241) (assay: ADP-Glo Kinase Assay of FYN kinase inhibition). Conditions: primary screen, initial compounds.
Type: biochemical
Procedure, shortened: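 GST-tagged full-length FYN A (baculovirus, Sf9) at 3 pg preincubated 30 min RT with compound (10-point 3-fold series from 10 μM) in Tris pH 7.5/MgCl2 buffer. 12-mer tyrosine peptide plus 12.5 pmol ATP added, 90 min RT; ADP measured by ADP-Glo luminescence, IC50 from dose-response.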

Chain of full-length recombinant human FYN A (P06241 whole entry): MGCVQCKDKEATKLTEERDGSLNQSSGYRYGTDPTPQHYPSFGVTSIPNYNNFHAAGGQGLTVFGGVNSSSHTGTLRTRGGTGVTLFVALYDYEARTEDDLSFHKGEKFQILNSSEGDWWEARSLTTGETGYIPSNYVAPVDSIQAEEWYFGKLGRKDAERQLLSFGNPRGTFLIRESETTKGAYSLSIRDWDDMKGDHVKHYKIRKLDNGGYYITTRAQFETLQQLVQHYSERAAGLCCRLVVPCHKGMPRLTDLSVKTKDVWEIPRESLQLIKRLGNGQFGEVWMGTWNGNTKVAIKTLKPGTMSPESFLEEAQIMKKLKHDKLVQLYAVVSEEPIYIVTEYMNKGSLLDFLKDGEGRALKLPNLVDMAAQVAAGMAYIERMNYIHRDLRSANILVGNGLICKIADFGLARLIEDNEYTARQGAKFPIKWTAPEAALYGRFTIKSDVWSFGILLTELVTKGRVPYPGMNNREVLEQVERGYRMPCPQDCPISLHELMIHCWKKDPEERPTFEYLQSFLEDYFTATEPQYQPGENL

Q: Which IC50 does the source give for `OCc1cccc(-c2ccnc3[nH]nc(-c4ccc5c(c4)OCO5)c23)c1` [Compound 527, [3-[3-(1,3-benzodioxol-5-yl)-1H-pyrazolo[3,4-b]pyridin-4-yl]phenyl] methanol] here?
A: 3090 nM

Q: `c1ccc(-c2n[nH]c3nccc(-c4ccoc4)c23)cc1` [Compound 528, 4-(3-furyl)-3-phenyl-1H-pyrazolo[3,4-b]pyridine] was tested. Which IC50 did it give?
A: 8630 nM

Q: With `COc1ccc(-c2ccnc3[nH]nc(-c4cc(OC)c(OC)c(OC)c4)c23)cn1` [Compound 529, 4-(6-methoxy-3-pyridyl)-3-(3,4,5-trimethoxy-phenyl)-1H-pyrazolo[3,4-b]pyridine] as the compound, how does the IC50 read?
A: 16900 nM

Q: With `c1coc(-c2ccnc3[nH]nc(C4CC4)c23)c1` [Compound 530, 3-cyclopropyl-4-(2-furyl)-1H-pyrazolo[3,4-b]pyridine] as the compound, how does the IC50 read?
A: 12600 nM

Q: With `COc1ccccc1-c1n[nH]c2nccc(-c3ccco3)c12` [Compound 531, 4-(2-furyl)-3-(2-methoxyphenyl)-1H-pyrazolo[3,4-b]pyridine] as the compound, how does the IC50 read?
A: 2280 nM

Q: How did the IC50 turn out when `COc1ccccc1-c1n[nH]c2nccc(-c3ccc(CO)cc3)c12` [Compound 532, [4-[3-(2-methoxyphenyl)-1H-pyrazolo[3,4-b]pyridin-4-yl]phenyl] methanol] was run?
A: 1100 nM

Q: How did the IC50 turn out when `COc1ccccc1-c1n[nH]c2nccc(-c3cccc(C(C)=O)c3)c12` [Compound 533, 1-[3-[3-(2-methoxyphenyl)-1H-pyrazolo[3,4-b]pyridin-4-yl]phenyl] ethanone] was run?
A: 6600 nM

Q: Which IC50 does the source give for `c1cc(-c2n[nH]c3nccc(-c4ccoc4)c23)ccn1` [Compound 534, 4-(3-furyl)-3-(4-pyridyl)-1H-pyrazolo[3,4-b]pyridine] here?
A: 20200 nM

Q: With `Nc1cccc(-c2ccnc3[nH]nc(-c4cccc(F)c4)c23)c1` [Compound 535, 3-[3-(3-fluorophenyl)-1H-pyrazolo[3,4-b]pyridin-4-yl]aniline] as the compound, how does the IC50 read?
A: 15100 nM

Q: For `NC(=O)c1cccc(-c2ccnc3[nH]nc(-c4ccccc4)c23)c1` [Compound 536, 3-(3-phenyl-1H-pyrazolo[3,4-b]pyridin-4-yl)benzamide], which IC50 is on record?
A: 11700 nM

Q: For `COc1cc(-c2n[nH]c3nccc(-c4cccc(N)c4)c23)cc(OC)c1OC` [Compound 537, 3-[3-(3,4,5-trimethoxy-phenyl)-1H-pyrazolo[3,4-b]pyridin-4-yl]aniline], which IC50 is on record?
A: 14800 nM

Q: How did the IC50 turn out when `COc1cc(-c2n[nH]c3nccc(-c4cccc(F)c4)c23)cc(OC)c1OC` [Compound 538, 4-(3-fluorophenyl)-3-(3,4,5-trimethoxy-phenyl)-1H-pyrazolo[3,4-b]pyridine] was run?
A: 5230 nM

Q: `O=C(O)/C=C/c1cccc(-c2cnn3ccc(NCc4cccnc4)nc23)c1` [Compound 539, (E)-3-[3-[5-(3-pyridylmethyl-amino)pyrazolo [1,5-a]pyrimidin-3-yl]phenyl]prop-2-enoic acid] was tested. Which IC50 did it give?
A: 2270 nM

Q: How did the IC50 turn out when `COc1cc(-c2cc(-c3cccc(C(N)=O)c3)cnc2N)cc(OC)c1OC` [Compound 540, 3-[6-amino-5-(3,4,5-trimethoxy-phenyl)-3-pyridyl] benzamide] was run?
A: 442 nM

Q: `CC(=O)c1ccc(-c2cnc(N)c(-c3cccc(N(C)C)c3)c2)s1` [Compound 541, 1-[5-[6-amino-5-[3-(dimethyl-amino)phenyl]-3-pyridyl]-2-thienyl]ethanone] was tested. Which IC50 did it give?
A: 3420 nM

Q: How did the IC50 turn out when `CNc1ccc2ncc(/C=C\CCCO)n2n1` [Compound 542, (Z)-5-[6-(methylamino)imidazo[1,2-b]pyridazin-3-yl]pent-4-en-1-ol] was run?
A: 31500 nM

Q: For `COc1cc(-c2cnc3sc(NCC4CCOCC4)nn23)ccc1O` [Compound 543, 2-methoxy-4-[2-(tetrahydropyran-4-ylmethyl-amino)imidazo [2,1-b][1,3,4]thiadiazo-5-yl]phenol], which IC50 is on record?
A: 2160 nM

Q: With `COc1ccc(-c2cnc3c(NC(C)=O)cc(-c4cccc(NC(C)=O)c4)cn23)cc1OC` [Compound 544, N-[3-[8-acetamido-3-(3,4-dimethoxy-phenyl)imidazo [1,2-a]pyridin-6-yl]phenyl] acetamide] as the compound, how does the IC50 read?
A: 1600 nM

Q: Which IC50 does the source give for `COc1cccc(-c2cc(NC(C)=O)c3ncc(-c4cccc(C(C)=O)c4)n3c2)c1` [Compound 545, N-[3-(3-acetylphenyl)-6-[3-methoxy-phenyl)imidazo [1,2-a]pyridin-8-yl]acetamide] here?
A: 3050 nM

Q: Which IC50 does the source give for `COc1cncc(-c2cnc3sc(NCc4ccncc4)nn23)c1` [Compound 546, 5-(5-methoxy-3-pyridyl)-N-(4-pyridylmethyl) imidazo[2,1-b][1,3,4] thiadiazol-2-amine] here?
A: 932 nM

Q: How did the IC50 turn out when `OC1CCC(Nc2nn3c(-c4ccc(F)c(Cl)c4)cnc3s2)CC1` (stereo not shown) [Compound 547, 4-[[5-(3-chloro-4-fluoro-phenyl)imidazo [2,1-b][1,3,4]thiadiazol-2-yl]amino] cyclohexanol] was run?
A: 4060 nM

Q: `COc1ccc(-c2cnc3sc(NCCc4ccc(S(N)(=O)=O)cc4)nn23)cc1OC` [Compound 548, 4-[2-[[5-(3,4-dimethoxyphenyl)imidazo[2,1-b] [1,3,4]thiadiazol-2-yl]amino]ethyl]benzene-sulfonamide] was tested. Which IC50 did it give?
A: 5120 nM

Q: With `COc1ccc(-c2cc(NC(C)=O)c3ncc(-c4cccc(C(C)=O)c4)n3c2)c(OC)c1` [Compound 549, N-[3-(3-acetylphenyl)-6-(2,4-dimethoxy-phenyl)imidazo [1,2-a]pyridin-8-yl]acetamide] as the compound, how does the IC50 read?
A: 2500 nM

Q: `COc1ccc(-c2cnc3sc(NCCc4ccncc4)nn23)cc1OC` [Compound 550, 5-(3,4-dimethoxy-phenyl)-N-[2-(4-pyridyl)ethyl]imidazo [2,1-b][1,3,4] thiadiazol-2-amine] was tested. Which IC50 did it give?
A: 3140 nM

Q: With `c1cc(CNc2nn3c(-c4ccncc4)cnc3s2)ccn1` [Compound 551, 5-(4-pyridyl)-N-(4-pyridylmethyl) imidazo[2,1-b] [1,3,4]thiadiazol-2-amine] as the compound, how does the IC50 read?
A: 2650 nM

Q: `COc1ccc(-c2cnc3sc(NCCc4ccncc4)nn23)cn1` [Compound 552, 5-(6-methoxy-3-pyridyl)-N-[2-(4-pyridyl)ethyl] imidazo[2,1-b] [1,3,4]thiadiazol-2-amine] was tested. Which IC50 did it give?
A: 2030 nM

Q: How did the IC50 turn out when `NS(=O)(=O)c1ccc(CCNc2nn3c(-c4cccnc4)cnc3s2)cc1` [Compound 553, 4-[2-[[5-(3-pyridyl)imidazo [2,1-d][1,3,4]thiadiazol-2-yl]amino]ethyl] benzene-sulfonamide] was run?
A: 1880 nM

Q: `c1csc(CNc2nn3c(-c4ccc(N5CCOCC5)cc4)cnc3s2)c1` [Compound 554, 5-(4-morpholino-phenyl)-N-(2-thienylmethyl) imidazo[2,1-b] [1,3,4]thiadiazol-2-amine] was tested. Which IC50 did it give?
A: 3820 nM

Q: Which IC50 does the source give for `COc1ccc(CNc2nn3c(-c4ccc(CO)cc4)cnc3s2)cc1` [Compound 555, [4-[2-[(4-methoxyphenyl)methylamino]imidazo[2,1-b] [1,3,4]thiadiazol-5-yl]phenyl] methanol] here?
A: 2810 nM

Q: `Clc1ccc(-c2cnc3sc(NCc4cccnc4)nn23)cc1` [Compound 556, 5-(4-chlorophenyl)-N-(3-pyridylmethyl) imidazo[2,1-b] [1,3,4]thiadiazol-2-amine] was tested. Which IC50 did it give?
A: 3660 nM

Q: How did the IC50 turn out when `CC(=O)Nc1cccc(-c2cnc3sc(NCCc4ccncc4)nn23)c1` [Compound 557, N-[3-[2-[2-(4-pyridyl)ethyl-amino]imidazo [2,1-b][1,3,4]thiadiazol-5-yl]phenyl] acetamide] was run?
A: 1320 nM

Q: Which IC50 does the source give for `CN(C)C(=O)c1cccc(-c2cnc3sc(NCCc4ccncc4)nn23)c1` [Compound 558, N,N-dimethyl-3-[2-[2-(4-pyridyl)ethyl-amino]imidazo [2,1-b][1,3,4]thiadiazol-5-yl]benzamide] here?
A: 721 nM

Q: How did the IC50 turn out when `COc1ccc(CNc2nn3c(-c4ccc(O)c(OC)c4)cnc3s2)cc1` [Compound 559, 2-methoxy-4-[2-[(4-methoxy-phenyl)methyl-amino]imidazo [2,1-b][1,3,4]thiadiazol-5-yl]phenol] was run?
A: 1780 nM

Q: With `COc1ccc(-c2cnc3sc(NCc4cccnc4)nn23)cn1` [Compound 560, 5-(6-methoxy-3-pyridyl)-N-(3-pyridylmethyl) imidazo[2,1-b] [1,3,4]thiadiazol-2-amine] as the compound, how does the IC50 read?
A: 2940 nM

Q: Which IC50 does the source give for `Fc1ccc(-c2cnc3sc(NCCN4CCOCC4)nn23)cc1Cl` [Compound 561, 5-(3-chloro-4-fluoro-phenyl)-N-(2-morpholino-ethyl)imidazo [2,1-b][1,3,4] thiadiazol-2-amine] here?
A: 4820 nM

Q: `c1cc(CCNc2nn3c(-c4ccncc4)cnc3s2)ccn1` [Compound 562] was tested. Which IC50 did it give?
A: 2430 nM

Q: How did the IC50 turn out when `COc1ccc(-c2cnc3sc(NC4CCC(O)CC4)nn23)cn1` (stereo not shown) [Compound 563, 4-[[5-(6-methoxy-3-pyridyl)imidazo[2,1-b] [1,3,4]thiadiazol-2-yl]amino] cyclohexanol] was run?
A: 1610 nM

Q: For `CC(=O)c1ccc(-c2cnc3sc(NCCN4CCOCC4)nn23)s1` [Compound 564, 1-[5-[2-(2-morpholinoethyl-amino)imidazo [2,1-b][1,3,4]thiadiazol-5-yl]-2-thienyl] ethanone], which IC50 is on record?
A: 3000 nM

Q: Which IC50 does the source give for `COc1ccccc1-c1cc(NC(C)=O)c2ncc(-c3cccc(C(C)=O)c3)n2c1` [Compound 565, N-[3-(3-acetylphenyl)-6-[2-methoxy-phenyl)imidazo [1,2-a]pyridin-8-yl]acetamide] here?
A: 1580 nM

Q: For `CS(=O)(=O)Nc1cccc(-c2cc(NC=O)c3ncc(-c4ccc(F)c(Cl)c4)n3c2)c1` [Compound 566, N-[3-(3-chloro-4-fluoro-phenyl)-6-[3-(methane-sulfonamido)phenyl]imidazo [1,2-a]pyridin-8-yl]formamide], which IC50 is on record?
A: 2860 nM

Q: With `c1csc(CNc2nn3c(-c4ccncc4)cnc3s2)c1` [Compound 567, 5-(4-pyridyl)-N-(2-thienylmethyl) imidazo[2,1-b] [1,3,4]thiadiazol-2-amine] as the compound, how does the IC50 read?
A: 3620 nM

Q: How did the IC50 turn out when `CS(=O)(=O)Nc1cccc(-c2cnc3sc(NC4CCCCC4)nn23)c1` [Compound 568, N-[3-[2-(cyclohexylamino)imidazo[2,1-b] [1,3,4]thiadiazol-5-yl]phenyl] methane-sulfonamide] was run?
A: 4330 nM

Q: For `CC(C)CNc1nn2c(-c3cccc(C(N)=O)c3)cnc2s1` [Compound 569, 3-[2-(isobutylamino)imidazo[2,1-b] [1,3,4]thiadiazol-5-yl]benzamide], which IC50 is on record?
A: 1130 nM
